Values joined by “and” are separate entries in the source; they are usually repeats but may differ in a detail not shown here. Equal entries are not always repeated. No end group written: not given here.
Tests used:
hESCs = experiment: hESC attachment and viability on HAV10-modified LBL films, effect of EDC/NHS concentration; assay type: cell-based; details: EDC/NHS used for HAV10 conjugation of PEI(Alg/PAH)5Alg films; 6 hours attachment
Description: Layer-by-layer (LBL) coating onto glass coverslips was initiated by incubation in 1.1 mg/ml Polyethylenimine (PEI) for 5 min. The polyelectrolyte solutions used for LBL deposition were 1.1 mg/ml low viscosity alginate (Alg) and poly (allylamine hydrochloride) (PAH), made using 0.1 M 2-(N-morpholino) ethanesulfonic acid (MES) buffer with 0.3M NaCl at pH 6.5. Polyelectrolyte multilayers were deposited by alternatively immersing slides into Alg, followed by PAH, for 1 min each, and were subsequently washed with 0.9% NaCl for 1 min between each deposition step. This process was repeated for 5 Alg/PAH layers, and the film was terminated with a final Alg layer (PEI(Alg/PAH)5Alg). Coverslips were dried at room temperature until used.
Prepared PEI(Alg/PAH)5Alg films were functionalized with the e-cadherin mimicking peptide HAV10 using water soluble carbodiimide chemistry. […]
Human embryonic stem cells (hESCs) were treated with the ROCK inhibitor Y-27632 for 2 hours prior to harvesting. hESCs were harvested using enzyme-free dissociation buffer and were treated with the Vibrant DiD cell labeling solution, to allow for visualization of cell attachment (700 nm). […] Cell attachment for each condition was determined by normalizing the MFI of attached cells to the MFI of the total possible number of cells, for each well imaged.

hPSCs = hPSCs encapsulated in alginate beads (3D), 10-100 mM BaCl2 tested, day 6
Description: hESCs were encapsulated using 10, 15, 20, 50 or 100 mM BaCl2 at a seeding density of 1×10^6 cells/ml of alginate solution. Alginate capsules were incubated for 6-8 min in the BaCl2 solution. Capsules were washed three times with DMEM/F12 and suspended in mTeSR1 ([sequence] Technologies, Vancouver, BC) with 10 mM of the ROCK inhibitor (rho-associated, coiled-coil containing protein kinase inhibitor) Y-27632 (e.g., 4-[(1R)-1-aminoethyl]-N-4-pyridinyl-trans-cyclohexanecarboxamide, dihydrochloride, [sequence] Technologies, Vancouver, BC) for 4 days, followed by 2 days in mTeSR1 alone to allow for colony formation. On day 6, viability of encapsulated hPSCs was analyzed by LIVE/DEAD staining, and imaged with fluorescent microscopy. The stock LIVE images from LIVE/DEAD analysis were processed using Metamorph Integrated Morphometry Analysis. hPSC colony data was generated for each colony within each image, measuring the area of the colony. This image processing was done on images taken on 5 capsules, each day for each condition.

H1 hESCs [1] = experiment: Pluripotency after propagation, qRT-PCR of OCT4 and Nanog; assay type: cell-based, human; details: 6 days on alginate conjugated with 50 μg/ml peptide
Description: (§1) hESC seeded on the peptide modified alginate hydrogels were propagated for 4 days in mTeSR1 with 10 μm Y-27632 prior to DE induction. DE was induced using 100 ng/ml ActivinA (R&D Systems) with 25 ng/ml Wnt3A (R&D Systems) for 4 days. Quantitative Reverse Transcriptase Polymerase Chain Reaction. mRNA was isolated using the NucleoSpin RNA II kit (Macherey-Nagel, Bethlehem, Pa.). cDNA was obtained using ImpromII Reverse Transcription (Promega, Madison, Wis.). Each PCR reaction contained 5 μl SYBR Green Master Mix (Agilent, Santa Clara, Calif.), 2 μl nuclease free H2O, 2 μl primer, and 10 cDNA. Samples were normalized to the house keeping gene GAPDH and analyzed relative to UD hESCs using the ΔΔCt method. Gene expression was measured with quantitative polymerase chain reaction (qRT-PCR) using an MX3005P system (Agilent).
Having confirmed that the substrates supported attachment and propagation of hPSCs, the next step was to analyze the maintenance of hPSC pluripotency after propagation. hPSC pluripotency is the ability to become any cell type in the body, and along with self-renewal, is the defining characteristic of hPSCs. The maintenance of pluripotency is critical for the downstream differentiation of hPSC into any functional cell types, for cell therapy applications. hPSCs were seeded on alginate conjugated with 50 μg/ml of HAV10, ADT10, HAV6, or ADT, and propagated for 6 days. […] As before, cell morphology was similar across each peptide, and appeared to have similar morphology to the typical hPSC colony (FIG. 12A).

H1 hESCs [2] = experiment: Cell expansion by MTS assay, day 6 normalized to day 1; assay type: cell-based, human; details: 6 days of propagation; alginate modified with 50 μg/ml peptide, or recombinant E-cadherin
Description: To determine cell expansion, cellular metabolism was assayed on cells attached to alginate conjugated with 50 μg/ml of each peptide using the CellTiter 96® AQueous One Solution Cell Proliferation Assay (MTS) after 1 and 6 days of culture, according to manufacturer's instructions. Briefly, cells were incubated with the MTS solution at a 1:5 v/v dilution for 3 hours at 37° C. Absorbance intensity of the supernatant at 490 nm was measured using a Synergy 2 multi-mode Microplate Reader. Fold expansion was determined by normalizing the day 6 absorbance by the day 1 absorbance, for cells grown on each peptide-conjugated alginate substrate.
Since high cell expansion is necessary to generate clinically relevant numbers of hPSCs, we next quantified the expansion potential of hPSCs grown on each peptide. Expansion potential was determined by normalizing cell number after 6 days of propagation, by day 1 cell number using MTS.

H1 hESCs [3] = experiment: Day 1 cell attachment to peptide conjugated alginate hydrogel (DiD label, LI-COR MFI); assay type: cell-based, human; details: peptide conjugated to alginate at 0-500 μg/ml
Description: The alginate hydrogels were formed prior to peptide attachment. The culture well was coated with a thin layer of 1.1% (w/v) low viscosity alginate (Sigma-Aldrich) with 0.2% (v/v) gelatin (Sigma-Aldrich), which was allowed to dry overnight. 20 mM BaCl2 was used to rehydrate and simultaneously cross link the alginate in a thin hydrogel covering the bottom of the culture well. Peptide conjugation was done using water soluble carbodiimide chemistry. Alginate hydrogels were activated by incubating with 20 mM/10 mM EDC/NHS in buffer containing 0.3 M 2-(N-morpholino) ethanesulfonic acid (MES) and 0.1 M NaCl, for 15 min. The peptides were then added and incubated overnight at 4° C. to allow for peptide conjugation to the […] of the alginate hydrogel. After conjugation, peptide modified hydrogels were washed with 0.9% saline prior to seeding cells.
Cell Attachment. For cell attachment studies to the peptide modified hydrogels, hESC were first labeled with DiD according to manufactures instruction, a fluorescent lipophilic dye, which is incorporated in the cell membrane. hESC were treated with 10 μm Y-27632 (R&D Systems, Minneapolis, Min.) for 2 hours prior to harvesting by Accutase (Invitrogen) treatment for 5-7 min. […] Cell attachment was analyzed 24 hours after seeding. First, total cell number per well was quantified using the LI-COR Odyssey scanner and Image Studio software to obtain the total possible MFI. Dead and unattached cells were washed away and the number of attached cells per well was again quantified using the LI-COR Odyssey scanner Image Studio software. […]
Having confirmed peptide conjugation to the alginate hydrogel, our first step was to analyze cell attachment to each peptide conjugated substrate. […] After 1 day, cell attachment was quantified for each tested condition using the LI-COR Odyssey scanner. Percent cell attachment was determined by scanning the signal for total seeded cells (prior to wash) and attached cells (post-wash) and normalizing the attached cell MFI to the total cell MFI, for each peptide and peptide concentration (FIG. 9A).

H1 hESCs [4] = experiment: Directed differentiation to definitive endoderm, qRT-PCR of SOX17 and FOXA2; assay type: cell-based, human; details: for FOXA2 gene expression, fold increase / SOX17 gene expression, upregulation compared to undifferentiated hESC controls: after DE induction (ActivinA + Wnt3A, 4 days); for FOXA2 expression, difference compared to Matrigel / SOX17 expression, difference compared to Matrigel: after DE induction
Description: as §1
Having confirmed that hPSCs maintained high pluripotency after being propagated on the E-cadherin mimicking substrates, the next question was if the differentiation potency was also maintained. To evaluate differentiation potential, cells were induced toward the definitive endoderm (DE) germ layer.

Molecule | toxicity towards hPSC attachment and viability (hESCs) | BaCl2 concentration supportive and strongly inductive of hPSC growth (hPSCs) [mM] | Nanog gene expression, upregulation compared to Matrigel (H1 hESCs [1]) | OCT4 gene expression, upregulation compared to Matrigel (H1 hESCs [1]) | fold expansion of hPSCs (day 6 / day 1) (H1 hESCs [2]) | peptide concentration at which cell attachment peaked (H1 hESCs [3]) [µg/mL] | FOXA2 gene expression, fold increase (H1 hESCs [4]) [fold] | SOX17 gene expression, upregulation compared to undifferentiated hESC controls (H1 hESCs [4]) [fold] | FOXA2 expression, difference compared to Matrigel (H1 hESCs [4]) | SOX17 expression, difference compared to Matrigel (H1 hESCs [4]) | cell attachment compared among peptides (H1 hESCs [3])
1-ethyl-3-(-3-dimethylaminopropyl) carbodiimide hydrochloride (EDC)/N-hydroxysuccinimide (NHS) [EDC/NHS] | mild toxicity |  |  |  |  |  |  |  |  |  | 
[Ba+2].[Cl-].[Cl-] [Barium Chloride (BaCl2), Barium Chloride] |  | < 15 |  |  |  |  |  |  |  |  | 
ADTPPV (also: conjugated to alginate hydrogel, site not given here) [ADT6] |  |  | on par with Matrigel | on par with Matrigel | 11 fold | 50 | 174 | 3400 |  |  | 
LFSHAVSSNG (also: conjugated to alginate hydrogel, site not given here) [HAV10] |  |  |  |  | approximately 23 fold | 50 | 497 | ~15000 | no statistical difference | no statistically significant difference | 
QGADTPPVGV (also: conjugated to alginate hydrogel, site not given here) [ADT10] |  |  | 1.5 fold and 1.6 fold | 3 fold and 3.6 fold | approximately 14 fold |  | 409 | ~13700 | no statistical difference | no statistically significant difference | highest cell attachment among all peptides
SHAVSS (also: conjugated to alginate hydrogel, site not given here) [HAV6] |  |  | 1.5 fold | 2 fold | 16 fold |  | 355 | 5900 |  |  | 

From patent US11591564B2, “Peptide conjugated hydrogel substrate for the maintenance and expansion of human pluripotent stem cells” (University of Pittsburgh—Of the Commonwealth System of …, priority 2016, dated 2023)
